Source: patent publication EP4707280A1, “1,4-CINEOLE DERIVATIVE AND INTERMEDIATE THEREOF, HERBICIDE CONTAINING SAID DERIVATIVE AS ACTIVE INGREDIENT, METHOD FOR USING HERBICIDE, AND METHOD FOR PREPARING AGROCHEMICAL COMPOSITION” (HOKKO CHEMICAL INDUSTRY CO., LTD., priority 2023, dated 2024)

What was measured:
Type in all cases: in vivo
[1] = system: Echinochloa crus-galli; test: Test Example 3: herbicidal effect test by soil application in upland field; details: 120 g per 10 ares, sprayed one day after sowing, 14 days after application; for inhibition at 1200 g/ha: Echinochloa crus-galli, read-out: weed inhibition rate
Outline: (§1)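 Pre-emergence test: seeds mixed into top 1 cm of alluvial loam upland soil in pots; emulsifiable concentrate diluted in water sprayed on soil one day after sowing at 100 L/10 a, 120 g a.i./10 a. Weed inhibition rate (%) scored at 14 days, in duplicate.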

[2] = system: Digitaria ciliaris; test: as above; details: 120 g per 10 ares, sprayed one day after sowing, 14 days after application; for inhibition at 1200 g/ha: Digitaria ciliaris, read-out: weed inhibition rate
Outline: as §1

[3] = system: Echinochloa crus-galli var. formosensis; test: Test Example 2: herbicidal effect test by application during growth period of paddy rice; details: 120 g per 10 ares, applied seven days after sowing, flooded pots, 14 days after application; for inhibition at 1200 g/ha: Echinochloa crus-galli, read-out: weed inhibition rate
Outline: (§2)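 Greenhouse pots of flooded paddy soil, seeded shallowly with 30 seeds per weed, are treated on day 7 by dropper with diluted emulsifiable concentrate equal to 120 g a.i./10 a. Duplicate pots are scored for inhibition rate 14 days post-application.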

[4] = system: Scirpus juncoides; test: as above; details: 120 g per 10 ares, applied seven days after sowing, flooded pots, 14 days after application; for inhibition at 1200 g/ha: Schoenoplectiella juncoides, read-out: weed inhibition rate
Outline: as §2

[5] = system: Echinochloa crus-galli var. formosensis; test: Test Example 1: herbicidal effect test by soil application in paddy rice; details: 120 g active ingredient per 10 ares, applied immediately after sowing, flooded pots, 14 days after application; for pest or weed control at 1200 g/ha: Echinochloa crus-galli, soil, 336 h, read-out: weed inhibition rate
Outline: (§3)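 Paddy soil in Wagner pots (1/10,000 acre) was fertilized (N:P:K 16:16:16) and puddled, then weed seeds were sown 0–1 cm deep, 30 each. Pots were flooded to ~3 cm and kept in a glass greenhouse. Emulsifiable concentrate diluted in water was dropped on immediately after sowing at 120 g a.i. per 10 ares.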

[6] = system: Scirpus juncoides; test: as above; details: 120 g active ingredient per 10 ares, applied immediately after sowing, flooded pots, 14 days after application; for pest or weed control at 1200 g/ha: Schoenoplectiella juncoides, soil, 336 h, read-out: weed inhibition rate
Outline: as §3

[7] = system: Echinochloa crus-galli; test: Test Example 4: herbicidal effect test by stem and leaf treatment in upland field; details: 120 g per 10 ares, sprayed seven days after sowing, upland soil, 14 days after application; for inhibition at 1200 g/ha: Echinochloa crus-galli, read-out: weed inhibition rate
[8] = system: Digitaria ciliaris; test: as above; details: 120 g per 10 ares, sprayed seven days after sowing, upland soil, 14 days after application; for inhibition at 1200 g/ha: Digitaria ciliaris, read-out: weed inhibition rate

CC(=O)O[C@H]1C[C@]2(C)O[C@@]1(C(C)C)C[C@H]2OCc1ccccc1F (racemic) [1-480, [(1R,2S,4S,SR)-5-[(2-fluorophenyl)methoxy]-4-methyl-1-isopropyl-7-oxabicyclo[2.2.1]heptan-2-yl]acetate]
≥ 80%: weed inhibition rate [1] | weed inhibition rate [2] | weed inhibition rate [3] | weed inhibition rate [4] | weed inhibition rate [5] | weed inhibition rate [6] | weed inhibition rate [7] | weed inhibition rate [8]

CC(C)[C@]12C[C@@H](OCc3ccccc3OC(F)(F)F)[C@](C)(C[C@@H]1I)O2 [1-750, (1R,2S,4S,5R)-2-iodo-1-isopropyl-4-methyl-5-[[2-(trifluoromethoxy)phenyl]methoxy]-7-oxabicyclo[2.2.1]heptane]
≥ 80%: inhibition at 1200 g/ha [3] | inhibition at 1200 g/ha [4] | pest or weed control at 1200 g/ha [5] | pest or weed control at 1200 g/ha [6]

CC(C)[C@]12C[C@@H](OCc3ccccc3C(F)(F)F)[C@](C)(C[C@@H]1I)O2 [1-765, (1R,2S,4S,5R)-2-iodo-1-isopropyl-4-methyl-5-[[2-(trifluoromethyl)phenyl]methoxy]-7-oxabicyclo[2.2.1]heptane]
≥ 80%: inhibition at 1200 g/ha [3] | inhibition at 1200 g/ha [4] | pest or weed control at 1200 g/ha [5] | pest or weed control at 1200 g/ha [6]

Cc1noc(C)c1CO[C@@H]1C[C@]2(C(C)C)O[C@@]1(C)C[C@@H]2I [1-790, 4-[[(1S,2R,4R,5S)-5-iodo-4-isopropyl-1-methyl-7-oxabicyclo [2.2.1]heptane-2-yl]oxymethyl]-3,5-dimethyl-isoxazole]
≥ 80%: inhibition at 1200 g/ha [3] | inhibition at 1200 g/ha [4] | pest or weed control at 1200 g/ha [5] | pest or weed control at 1200 g/ha [6]

CC(C)[C@@]12C[C@H](OCc3ccccn3)[C@@](C)(C[C@H]1I)O2 [1-1126, 2-[[(1R,2S,4S,5R)-5-iodo-1-methyl-4-isopropyl-7-oxabicyclo[2.2.1]heptan-2-yl]oxymethyl]pyridine]
≥ 80%: inhibition at 1200 g/ha [1] | inhibition at 1200 g/ha [2] | inhibition at 1200 g/ha [3] | inhibition at 1200 g/ha [4] | pest or weed control at 1200 g/ha [5] | pest or weed control at 1200 g/ha [6] | inhibition at 1200 g/ha [7] | inhibition at 1200 g/ha [8]

CC(C)C12CC(OCc3ccccc3C(F)(F)F)C(C)(CC1Cl)O2 (stereo not shown) [1-1301, 5-chloro-1-methyl-4-isopropyl-2-[[2-(trifluoromethyl)phenyl]methoxy]-7-oxabicyclo[2.2.1]heptane]
≥ 80%: inhibition at 1200 g/ha [3] | inhibition at 1200 g/ha [4] | pest or weed control at 1200 g/ha [5] | pest or weed control at 1200 g/ha [6]

Cc1noc(C)c1COC1CC2(C(C)C)OC1(C)CC2Cl (stereo not shown) [1-1325, 4-[(5-chloro-4-isopropyl-1-methyl-7-oxabicyclo[2.2.1]heptan-2-yl)oxymethyl]-3,5-dimethyl-isoxazole]
≥ 80%: inhibition at 1200 g/ha [3] | inhibition at 1200 g/ha [4] | pest or weed control at 1200 g/ha [5] | pest or weed control at 1200 g/ha [6]

CC#CCO[C@@H]1C[C@]2(C(C)C)O[C@@]1(C)CC2Br (stereo partly drawn) [1-1336, (1S,2R,4R)-5-bromo-2-but-2-ynoxy-1-methyl-4-isopropyl-7-oxabicyclo[2.2.1]heptane]
≥ 80%: inhibition at 1200 g/ha [1] | inhibition at 1200 g/ha [2] | inhibition at 1200 g/ha [3] | inhibition at 1200 g/ha [4] | pest or weed control at 1200 g/ha [5] | pest or weed control at 1200 g/ha [6] | inhibition at 1200 g/ha [7] | inhibition at 1200 g/ha [8]

CC(C)C12CC(OCc3ccsc3)C(C)(CC1Br)O2 (stereo not shown) [1-1390, 5-bromo-1-methyl-4-isopropyl-2-(thiophen-3-ylmethoxy)-7-oxabicyclo[2.2.1]heptane]
≥ 80%: inhibition at 1200 g/ha [1] | inhibition at 1200 g/ha [2] | inhibition at 1200 g/ha [3] | inhibition at 1200 g/ha [4] | pest or weed control at 1200 g/ha [5] | pest or weed control at 1200 g/ha [6] | inhibition at 1200 g/ha [7] | inhibition at 1200 g/ha [8]

CC(C)C12CC(OCc3ccccc3OC(F)(F)F)C(C)(CC1I)O2 (stereo not shown) [1-1418, 2-iodo-1-isopropyl-4-methyl-5-[[2-(trifluoromethoxy)phenyl]methoxy]-7-oxabicyclo[2.2.1]heptane]
≥ 80%: inhibition at 1200 g/ha [3] | inhibition at 1200 g/ha [4] | pest or weed control at 1200 g/ha [5] | pest or weed control at 1200 g/ha [6]

CC(C)C12CC(OCc3ccccc3C(F)(F)F)C(C)(CC1I)O2 (stereo not shown) [1-1433, 2-iodo-1-isopropyl-4-methyl-5-[[2-(trifluoromethyl)phenyl]methoxy]-7-oxabicyclo[2.2.1]heptane]
≥ 80%: inhibition at 1200 g/ha [3] | inhibition at 1200 g/ha [4] | pest or weed control at 1200 g/ha [5] | pest or weed control at 1200 g/ha [6]

C#CCO[C@H]1C[C@]2(C)O[C@@]1(C(C)C)C[C@H]2OCc1ccccc1F [1-1607, (1S,2R,4R,5S)-2-[(2-fluorophenyl)methoxy]-1-methyl-4-isopropyl-5-prop-2-ynoxy-7-oxabicyclo[2.2.1]heptane]
≥ 80%: inhibition at 1200 g/ha [1] | inhibition at 1200 g/ha [2] | inhibition at 1200 g/ha [3] | inhibition at 1200 g/ha [4] | pest or weed control at 1200 g/ha [5] | pest or weed control at 1200 g/ha [6] | inhibition at 1200 g/ha [7] | inhibition at 1200 g/ha [8]

CC(C)[C@]12C=C[C@](C)(O1)[C@H](OCc1c(Cl)cccc1Cl)C2 [3-732, (1R,4S,5R)-5-[(2,6-dichlorophenyl)methoxy]-4-methyl-1-isopropyl-7-oxabicyclo[2.2.1]hept-2-ene]
≥ 80%: inhibition at 1200 g/ha [1] | inhibition at 1200 g/ha [2] | inhibition at 1200 g/ha [3] | inhibition at 1200 g/ha [4] | pest or weed control at 1200 g/ha [5] | pest or weed control at 1200 g/ha [6] | inhibition at 1200 g/ha [7] | inhibition at 1200 g/ha [8]

CC(C)[C@]12C=C[C@](C)(O1)[C@H](OCc1ccccn1)C2 [3-738, 2-[[(1S,2R,4R)-1-methyl-4-isopropyl-7-oxabicyclo[2.2.1]hept-5-en-2-yl]oxymethyl]pyridine]
≥ 80%: inhibition at 1200 g/ha [1] | inhibition at 1200 g/ha [2] | inhibition at 1200 g/ha [3] | inhibition at 1200 g/ha [4] | pest or weed control at 1200 g/ha [5] | pest or weed control at 1200 g/ha [6] | inhibition at 1200 g/ha [7] | inhibition at 1200 g/ha [8]

CC(C)[C@@]12C=C[C@@](C)(O1)[C@@H](OCc1ccccc1)C2 [3-748, (1S,4R,5S)-4-methyl-5-phenylmethoxy-1-isopropyl-7-oxabicyclo[2.2.1]hept-2-ene]
≥ 80%: inhibition at 1200 g/ha [1] | inhibition at 1200 g/ha [2] | inhibition at 1200 g/ha [3] | inhibition at 1200 g/ha [4] | pest or weed control at 1200 g/ha [5] | pest or weed control at 1200 g/ha [6] | inhibition at 1200 g/ha [7] | inhibition at 1200 g/ha [8]

Cc1ccccc1CO[C@H]1C[C@]2(C(C)C)C=C[C@@]1(C)O2 [3-749, (1S,4R,5S)-4-methyl-5-[(2-methylphenyl)methoxy]-1-isopropyl-7-oxabicyclo[2.2.1]hept-2-ene]
≥ 80%: inhibition at 1200 g/ha [1] | inhibition at 1200 g/ha [2] | inhibition at 1200 g/ha [3] | inhibition at 1200 g/ha [4] | pest or weed control at 1200 g/ha [5] | pest or weed control at 1200 g/ha [6] | inhibition at 1200 g/ha [7] | inhibition at 1200 g/ha [8]
